Tested on: Episkin model of reconstructed skin
Test: Skin coloring on the Episkin model of reconstructed skin, spectrocolorimeter measurement after washing
Type: cell-based
Experimental: The products are evaluated on the Episkin model of reconstructed skin after 18 days of culturing. The crucibles are placed on Whatman paper. 20 μl of a 5 wt % solution of test product in a 50% water/50% ethanol mixture. […] A second rinse is performed with 1 ml of water. The residual liquid is absorbed using a soft paper tissue. The measurements are taken using a Minolta CM-2600d spectrocolorimeter.
Spectrocolorimeter Minolta CM2600d
The results are expressed in the system (L*, a*, b*) dans lequel L* is the luminance, a* is the red-green axis (−a*=green, +a*=red) and b* is the yellow/blue axis (−b*=blue, +b*=yellow). Therefore, a* and b* express the coloring of the skin.
The color deviation is obtained with the color deviation formula of Hunter in the calorimetric domain L, a, b: (ΔE)^2=[(ΔL)^2+(Δa)^2+(Δb)^2]. ΔE is the darkening, the global intensity of the color: The more ΔE is important the more the color darkened.

[1] = 5 wt % solution in 50% water/50% ethanol, 20 μl, after 24 hours, after washing

SMILES: O=C1OC(C(O)CO)C(=O)C1=O (stereo not drawn) [Dehydroascorbic acid, threo-2,3-hexodiulosono-1,4-lactone, 9CI]
- L* (luminance / intensity) [1]: 77.7
- a* (red component) [1]: 4.8
- b* (yellow component) [1]: 35
- ΔE*ab (color deviation, darkening) (5 wt % solution, after 24 hours, after washing, deviation versus Episkin alone): 14.6
- Shade obtained compared with DHA (concentration equal to 5 wt %): stronger shade with a more pronounced dominant red

From US9643032B2, “Application of dehydroascorbic acid or derivatives/isomers thereof for artificially coloring the skin” (L'Oreal, priority 2007, dated 2017)
